Results as given in PMC4463742, “A new family of StART domain proteins at membrane contact sites has a role in ER-PM sterol transport” (eLife, 2015).

Key:
Ysp2p [1] = target: T1, Ysp2p (Saccharomyces cerevisiae, UniProt Q06681); assay: tryptophan-DHE FRET with purified domain; assay type: binding
T1 construct: gene YSP2; StART-like domains Ysp2S1 (829-1027) and Ysp2S2 (1027-1244), His-tagged, each measured

Lam4p [2] = target: T2, Lam4p (Saccharomyces cerevisiae, UniProt P38800); assay: biochemical
T2 construct: gene LAM4
T2 sequence (P38800 946-1155): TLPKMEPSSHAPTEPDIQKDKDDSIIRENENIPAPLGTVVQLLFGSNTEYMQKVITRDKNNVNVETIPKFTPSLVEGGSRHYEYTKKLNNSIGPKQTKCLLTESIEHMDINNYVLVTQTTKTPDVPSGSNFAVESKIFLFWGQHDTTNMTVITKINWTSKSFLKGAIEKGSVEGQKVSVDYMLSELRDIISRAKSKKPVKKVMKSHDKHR

Ysp2p [3] = target: T1, Ysp2p; assay: competition of tryptophan-DHE FRET with purified domain; assay type: binding
Lam4p [4] = target: T2, Lam4p; assay: co-purification of […]-labelled cholesterol from HL60 cells (TLC); competition of DHE FRET; assay type: binding

T1 sequence (Q06681 829-1244): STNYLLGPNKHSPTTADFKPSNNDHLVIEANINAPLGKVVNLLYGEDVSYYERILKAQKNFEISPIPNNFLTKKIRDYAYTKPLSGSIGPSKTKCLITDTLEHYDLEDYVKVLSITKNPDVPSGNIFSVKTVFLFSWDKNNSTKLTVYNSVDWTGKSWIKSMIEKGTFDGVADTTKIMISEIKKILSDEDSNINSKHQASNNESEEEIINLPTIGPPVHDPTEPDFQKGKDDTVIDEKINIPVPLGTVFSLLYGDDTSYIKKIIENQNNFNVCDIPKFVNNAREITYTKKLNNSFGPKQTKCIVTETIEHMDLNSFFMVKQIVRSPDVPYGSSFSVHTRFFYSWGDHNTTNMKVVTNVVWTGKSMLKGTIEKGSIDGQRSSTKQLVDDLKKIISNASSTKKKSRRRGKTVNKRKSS

| SMILES | tryptophan-DHE FRET with purified domain (Ysp2p [1]) | Kd (Lam4p [2]) | competition of tryptophan-DHE FRET with purified domain (Ysp2p [3]) | co-purification of 14C-labelled cholesterol from HL60 cells (TLC); competition o (Lam4p [4]) |
| --- | --- | --- | --- | --- |
| CC(C)[C@@H](C)/C=C/[C@@H](C)[C@H]1CC[C@H]2C3=CC=C4C[C@@H](O)CC[C@]4(C)C3=CC[C@]12C [DHE, dehydroergosterol] | these proteins all produced strong FRET signals with DHE | 500 nM |  |  |
| CC(C)CCC[C@@H](C)[C@H]1CC[C@H]2[C@@H]3CC=C4C[C@@H](O)CC[C@]4(C)[C@H]3CC[C@]12C [chol, cholesterol] |  |  | All four purified StART-like domains bound both cholesterol (the predominant sterol in mammals) and ergosterol | Lam4S2 extracted cholesterol but no other lipids from labelled HL60 cells |
| CC(C)[C@@H](C)/C=C/[C@@H](C)[C@H]1CC[C@H]2C3=CC=C4C[C@@H](O)CC[C@]4(C)[C@H]3CC[C@]12C [erg, ergosterol] |  |  | All four purified StART-like domains bound both cholesterol (the predominant sterol in mammals) and ergosterol |  |
